Values joined by “and” are separate entries in the source; they are usually repeats but may differ in a detail not shown here. Equal values may be shown once. Read-outs that look alike come from different tables or passages of the source. Where a SMILES comes first, the peptide text is derived from it. Where no end group is shown, it is not given here. [ ]: non-standard residue; d: D form. Apa = (S)-2-amino-4[(2-amino)pyrimidinyl]methylalanine; Phe(4-guanidino) = N=C(N)Nc1ccc(C[C@H](N)C(=O)O)cc1; Cha = N[C@@H](CC1CCCCC1)C(=O)O; Orn = NCCC[C@H](N)C(=O)O
Target: T1, PTHR-delNt (Homo sapiens, UniProt Q03431, DEL24-181)
T1 construct: expressed in transfected cells; host or cells: COS-7 cells, transient co-transfection; membranes prepared
T1 sequence (Q03431 with tags, fused parts or gaps DEL24-181): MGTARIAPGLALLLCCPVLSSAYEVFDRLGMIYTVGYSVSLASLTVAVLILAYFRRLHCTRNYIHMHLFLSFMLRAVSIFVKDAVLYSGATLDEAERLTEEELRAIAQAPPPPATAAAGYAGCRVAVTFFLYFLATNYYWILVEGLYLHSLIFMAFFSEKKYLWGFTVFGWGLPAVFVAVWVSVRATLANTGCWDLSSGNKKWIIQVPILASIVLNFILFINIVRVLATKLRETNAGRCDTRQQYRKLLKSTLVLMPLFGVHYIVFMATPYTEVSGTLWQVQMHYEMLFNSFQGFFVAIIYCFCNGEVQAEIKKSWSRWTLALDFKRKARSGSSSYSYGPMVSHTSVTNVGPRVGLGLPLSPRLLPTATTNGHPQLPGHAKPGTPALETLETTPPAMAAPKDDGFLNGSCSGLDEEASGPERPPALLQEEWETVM
Experiment: Competition binding in COS-7 cell membranes with 125I-[Aib1,3,M]PTH(1-15)NH2 tracer
Settings: for reduction (alteration) of binding affinity for PTHR-delNt relative to parent peptide: versus the respective parent peptide; for IC50: COS-7 membranes cotransfected with negative-dominant Gαs
Procedure, shortened: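 Membranes (20 µg/well) from COS-7 cells co-transfected with human PTHR lacking residues 24–181 plus dominant-negative Gαs, incubated 90 min at 21 °C with 125I-[Aib1,3,M]PTH(1-15)NH2 and unlabeled peptide (3×10^−9 to 1×10^−5 M), then filtered and gamma-counted. Non-specific binding with 1×10^−6 M [Aib1,3,M]PTH(1-15)NH2; IC50 by four-parameter logistic fit, extrapolated to reference maximal inhibition where incomplete.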

[1] = [Ala1,Arg19]hPTH(1-31)NH2 analogs, read-out: PTHR-delNT (COS-7) IC50
[2] = hPTH(1-31)NH2 analogs, read-out: PTHR-delNT (COS-7) IC50

Molecule	reduction (alteration) of binding affinity for PTHR-delNt relative to parent peptide (COS-7 membranes)	IC50 [2] [µM]	also measured
CC[C@H](C)[C@H](NC(=O)[C@H](CCC(=O)O)NC(=O)[C@H](CO)NC(=O)[C@@H](NC(=O)[C@H](C)N)C(C)C)C(=O)N[C@@H](CCC(N)=O)C(=O)N[C@@H](CC(C)C)C(=O)N[C@@H](CCSC)C(=O)N[C@@H](Cc1c[nH]cn1)C(=O)N[C@@H](CC(N)=O)C(=O)N[C@@H](CC(C)C)C(=O)NCC(=O)N[C@@H](CCCCN)C(=O)N[C@@H](Cc1c[nH]cn1)C(=O)N[C@@H](CC(C)C)C(=O)N[C@@H](CC(N)=O)C(=O)N[C@@H](CO)C(=O)N[C@@H](CCSC)C(=O)N[C@@H](CCCNC(=N)N)C(=O)N[C@@H](CC1CCCCC1)C(=O)N[C@H](C(=O)N[C@@H](CCC(=O)O)C(=O)N[C@@H](Cc1c[nH]c2ccccc12)C(=O)N[C@@H](CC(C)C)C(=O)N[C@@H](CCCNC(=N)N)C(=O)N[C@@H](CCCCN)C(=O)N[C@@H](CCCCN)C(=O)N[C@@H](CC(C)C)C(=O)N[C@@H](CCC(N)=O)C(=O)N[C@@H](CC(=O)O)C(=O)N[C@H](C(N)=O)C(C)C)C(C)C [Arg^20→Cha, AlaValSerGluIleGlnLeuMetHisAsnLeuGlyLysHisLeuAsnSerMetArgChaValGluTrpLeuArgLysLysLeuGlnAspVal] (H-AVSEIQLMHNLGKHLNSMR[Cha]VEWLRKKLQDV-NH2; N-terminus assumed)	three-fold or less		IC50 [1]: 0.632 ± 0.079 µM
CC[C@H](C)[C@H](NC(=O)[C@H](CCC(=O)O)NC(=O)[C@H](CO)NC(=O)[C@@H](NC(=O)[C@@H](N)CO)C(C)C)C(=O)N[C@@H](CCC(N)=O)C(=O)N[C@@H](CC(C)C)C(=O)N[C@@H](CCSC)C(=O)N[C@@H](Cc1c[nH]cn1)C(=O)N[C@@H](CC(N)=O)C(=O)N[C@@H](CC(C)C)C(=O)NCC(=O)N[C@@H](CCCCN)C(=O)N[C@@H](Cc1c[nH]cn1)C(=O)N[C@@H](CC(C)C)C(=O)N[C@@H](CC(N)=O)C(=O)N[C@@H](CO)C(=O)N[C@@H](CCSC)C(=O)N[C@@H](CCC(=O)O)C(=O)N[C@@H](Cc1ccc(NC(=N)N)cc1)C(=O)N[C@H](C(=O)N[C@@H](CCC(=O)O)C(=O)N[C@@H](Cc1c[nH]c2ccccc12)C(=O)N[C@@H](CC(C)C)C(=O)N[C@@H](CCCNC(=N)N)C(=O)N[C@@H](CCCCN)C(=O)N[C@@H](CCCCN)C(=O)N[C@@H](CC(C)C)C(=O)N[C@@H](CCC(N)=O)C(=O)N[C@@H](CC(=O)O)C(=O)N[C@H](C(N)=O)C(C)C)C(C)C [Arg^20→Gph] (H-SVSEIQLMHNLGKHLNSME[Phe(4-guanidino)]VEWLRKKLQDV-NH2; N-terminus assumed)		2.05	
CC[C@H](C)[C@H](NC(=O)[C@H](CCC(=O)O)NC(=O)[C@H](CO)NC(=O)[C@@H](NC(=O)[C@@H](N)CO)C(C)C)C(=O)N[C@@H](CCC(N)=O)C(=O)N[C@@H](CC(C)C)C(=O)N[C@@H](CCSC)C(=O)N[C@@H](Cc1c[nH]cn1)C(=O)N[C@@H](CC(N)=O)C(=O)N[C@@H](CC(C)C)C(=O)NCC(=O)N[C@@H](CCCCN)C(=O)N[C@@H](Cc1c[nH]cn1)C(=O)N[C@@H](CC(C)C)C(=O)N[C@@H](CC(N)=O)C(=O)N[C@@H](CO)C(=O)N[C@@H](CCSC)C(=O)N[C@@H](CCC(=O)O)C(=O)N[C@@H](CCCN)C(=O)N[C@H](C(=O)N[C@@H](CCC(=O)O)C(=O)N[C@@H](Cc1c[nH]c2ccccc12)C(=O)N[C@@H](CC(C)C)C(=O)N[C@@H](CCCNC(=N)N)C(=O)N[C@@H](CCCCN)C(=O)N[C@@H](CCCCN)C(=O)N[C@@H](CC(C)C)C(=O)N[C@@H](CCC(N)=O)C(=O)N[C@@H](CC(=O)O)C(=O)N[C@H](C(N)=O)C(C)C)C(C)C [Arg^20→Orn] (H-SVSEIQLMHNLGKHLNSME[Orn]VEWLRKKLQDV-NH2; N-terminus assumed)		5.53	
CC[C@H](C)[C@H](NC(=O)[C@H](CCC(=O)O)NC(=O)[C@H](CO)NC(=O)[C@@H](NC(=O)[C@H](C)N)C(C)C)C(=O)N[C@@H](CCC(N)=O)C(=O)N[C@@H](CC(C)C)C(=O)N[C@@H](CCSC)C(=O)N[C@@H](Cc1c[nH]cn1)C(=O)N[C@@H](CC(N)=O)C(=O)N[C@@H](CC(C)C)C(=O)NCC(=O)N[C@@H](CCCCN)C(=O)N[C@@H](Cc1c[nH]cn1)C(=O)N[C@@H](CC(C)C)C(=O)N[C@@H](CC(N)=O)C(=O)N[C@@H](CO)C(=O)N[C@@H](CCSC)C(=O)N[C@@H](CCCNC(=N)N)C(=O)N[C@@H](CCCNC(=N)N)C(=O)N[C@H](C(=O)N[C@@H](CCC(=O)O)C(=O)N[C@@H](Cc1c[nH]c2ccccc12)C(=O)N[C@@H](CC(C)C)C(=O)N[C@@H](CCCNC(=N)N)C(=O)N[C@@H](CCCCN)C(=O)N[C@@H](CCCCN)C(=O)N[C@@H](CC(C)C)C(=O)N[C@@H](CCC(N)=O)C(=O)N[C@@H](CC1CCCCC1)C(=O)N[C@H](C(N)=O)C(C)C)C(C)C [Asp^30→Cha] (H-AVSEIQLMHNLGKHLNSMRRVEWLRKKLQ[Cha]V-NH2; N-terminus assumed)			IC50 [1]: 0.305 ± 0.126 µM
AVSEIQLMHNLGKHLNSMERVEWLRKKLQDV-NH2 [Arg^19→Glu]	50 fold and 90 fold		
AVSEIQLMHNLGKHLNSMRREEWLRKKLQDV-NH2 [Val^21→Glu]	about four-fold		IC50 (PTHR-delNT (COS-7) IC50, [Ala1,Arg19]hPTH(1-31)NH2 analogs): 1.61 µM
AVSEIQLMHNLGKHLNSMRRVEWERKKLQDV-NH2 [Leu^24→Glu]	less than three-fold		effect on binding to PTHR-delNt (in words) (COS-7 membranes): only mildly impaired binding to PTHR-delNt; IC50 [1]: 1.04 µM
AVSEIQLMHNLGKHLNSMRRVEWLEKKLQDV-NH2 [Arg^25→Glu]	about four-fold		IC50 [1]: 1.63 µM
AVSEIQLMHNLGKHLNSMRRVEWLREKLQDV-NH2 [Lys^26→Glu]			IC50 [1]: 0.832 ± 0.215 µM
AVSEIQLMHNLGKHLNSMRRVEWLRKELQDV-NH2 [Lys^27→Glu]			IC50 [1]: 1.27 µM
Arg^20→Apa: hPTH(1-31)NH2 analog with Arg^20 replaced by (S)-2-amino-4[(2-amino)pyrimidinyl]methylalanine (Apa) (SVSEIQLMHNLGKHLNSME[Apa]VEWLRKKLQDV-NH2)		5.74	
SVSEIQLMHNLGKHLNSMARVAWLRKKLQDV-NH2 [Glu^19,22→Ala,Ala]		0.619 ± 0.075	
SVSEIQLMHNLGKHLNSMARVEWLRKKLQDV-NH2 [Glu^19→Ala]		2.94	
SVSEIQLMHNLGKHLNSMEAVEWLRKKLQDV-NH2 [Arg^20→Ala]	approximate five-fold reduction	19.3	
SVSEIQLMHNLGKHLNSMEEVEWLRKKLQDV [Arg^20→Glu]	less than three-fold	14.7	reduction (alteration) of binding affinity for PTHR-delNt relative to parent peptide (COS-7 membranes, listed as Arg^20 to Glu substitution in PTH(1-31)NH2): approximately four-fold reduction; IC50 [1]: 0.776 ± 0.38 µM
SVSEIQLMHNLGKHLNSMEKVEWLRKKLQDV-NH2 [Arg^20→Lys]		7.11	
SVSEIQLMHNLGKHLNSMEQVEWLRKKLQDV-NH2 [Arg^20→Gln]		10.3	
SVSEIQLMHNLGKHLNSMERAEWLRKKLQDV-NH2 [Val^21→Ala]		5.69	
SVSEIQLMHNLGKHLNSMERVAWLRKKLQDV-NH2 [Glu^22→Ala]		5.86	
SVSEIQLMHNLGKHLNSMERVEALRKKLQDV-NH2 [Trp^23→Ala]	only two-fold	7.36	
SVSEIQLMHNLGKHLNSMERVEWARKKLQDV-NH2 [Leu^24→Ala]	only two-fold	8.76	
SVSEIQLMHNLGKHLNSMERVEWLAKKLQDV-NH2 [Arg^25→Ala]		7.18	
SVSEIQLMHNLGKHLNSMERVEWLRAKLQDV-NH2 [Lys^26→Ala]		6.21	
SVSEIQLMHNLGKHLNSMERVEWLRKALQDV-NH2 [Lys^27→Ala]		7.29	
SVSEIQLMHNLGKHLNSMERVEWLRKKAQDV-NH2 [Leu^28→Ala]		3.46	
SVSEIQLMHNLGKHLNSMERVEWLRKKLADV-NH2 [Gln^29→Ala]		1.93	
SVSEIQLMHNLGKHLNSMERVEWLRKKLQDA-NH2 [Val^31→Ala]		4.91	
SVSEIQLMHNLGKHLNSMRRVAWLRKKLQDV-NH2 [Glu^19,22→Arg,Ala]		0.36 ± 0.019	
SVSEIQLMHNLGKHLNSMRRVEWLRKKLQDV-NH2 [Glu^19→Arg]		1.23	
